Measured values: patent US4885277A, “Anticoagulant therapy” (Oklahoma Medical Research Foundation, priority 1987, dated 1989)
Where no end group is shown, it is not given here. [ ]: non-standard residue; d: D form. pGlu = O=C1CC[C@@H](C(=O)O)N1

System: endothelial cellular receptors for Factor IX (cultured bovine aortic endothelial cells)
Assay: Competitive binding of [125I]-Factor IX to cultured bovine aortic endothelial cells
Conditions: up to millimolar amounts of peptide
Method: The purified peptides were tested for their ability to block the binding of bovine Factor IX and IXa to cultured bovine aortic endothelial cells. Bovine Factor IX and IXa for these studies were prepared and radioiodinated (using Na^125 I and the solid state lactoperoxidase technique) using methods described by Stern, et al. (J. Biol. Chem. 260, pp. 6717-6722 [1985]). Bovine aortic endothelial cells were obtained from the aortae of newborn calves as described by Stern, et al. (Proc. Natl. Acad. Sci. U.S.A., 80, pp. 4119-4123 [1983]). These endothelial cells were grown to confluence (1.3×10^5 cells/cm^2) in culture dishes. Binding assays were carried out by incubating either ^125 I-Factor IX or ^125 I-Factor IXa with endothelial cell monolayers in the presence of varying concentrations of one of the peptides. The buffer used in these experiments was Minimal Essential Medium containing 0.5 mg/ml transferring, and the incubation time was 4-5 hours at 4° C. At the end of the incubation period, the cultures were washed to remove unbound material. Then, specifically bound [^125 I]-Factor IX or [^125 I]-Factor IXa was eluted during exposure to EDTA-containing buffer as described by Stern, et al. (Proc. Natl. Acad. Sci. U.S.A., 80, pp. 4119-4123 [1983].

| Substance | inhibition of [125I]-Factor IX endothelial cell binding |
| --- | --- |
| DRVYVHPSL [Angiotensin I, control peptide for specificity] | no inhibition |
| PCA-Gly-Val-Asn-Glu-Glu-Gly-Phe-Phe-Ser-Ala-Arg ([pGlu]GVNEEGFFSAR) [fibrinopeptide B, control peptide for specificity] | no inhibition |
